Laboratory results taken from patent US8088951B2, “Epigenetic mechanisms re-establish access to long-term memory after neuronal loss” (Massachusetts Institute of Technology, priority 2006, dated 2012).

Assays:
Format in all cases: in vivo
[1] = test system: H3 and H4 acetylation; assay: Histone acetylation in hippocampal lysates of wild type mice (immunoblot); conditions: daily ip for 4 weeks
Description: Immunoblotting and staining: Lysates for immunoblotting were prepared as described by Fischer et al. (3). To isolate histones, brain tissue was homogenized in TX-buffer (50 mM Tris HCL, 150 mM NACL, 2 mM EDTA, 1% Triton-100) and incubated at 4° C. for 15 min prior to centrifugation at 200 rpm for 10 min. After a wash-step in TX-buffer the pellet was dissolved in TX-buffer containing 0.2M HCl and incubated on ice for 30 min, before a second centrifugation at 10000 rpm for 10 min. The supernatant was either dialysed or directly used for immunoblotting. Antibodies were used in 1:1000 concentrations. All antibodies detecting histones and anti-PSD-95 were form Upstate (Lake Placid, N.Y.). Anti-synaptophysin (SVP38) was from Sigma. Anti-neuronal nuclei (neuN) and anti-growth associated protein (Gap43) were from Chemicon (Temecula, Calif.) and anti-N-cadherin, anti-β-catenin were from Santa Cruz (Santa Cruz, Calif.). Immunostaining was performed as described by Fischer et al. (3). Antibodies mentioned above were used in a 1:500 dilution. […]
Mechanism underlying EE. […] Since histone acetylation, an epigenetic mechanism regulating gene expression via chromatin remodeling, has recently been implicated in synaptic plasticity and learning behavior (15-18), the induction of a transcriptional program by EE that leads to activation of plasticity genes was evaluated. […]

[2] = test system: CK-p25 Tg mice; assay: Recovery of long-term fear memories in CK-p25 Tg mice; conditions: CK-p25 Tg mice trained, 4 weeks rest, 6 weeks p25, then 1.2 g/kg daily for 4 weeks; P=0.0496
Description: The effect of HDAC inhibition on the recovery of inaccessible long-term memories was evaluated. Eleven month old CK-p25 Tg mice were trained in the fear conditioning paradigm and returned to their home cages for 4 weeks. Subsequently p25 was induced for 6 weeks before the mice were injected with either saline (vehicle, n=12) or SB (1.2 g/kg, n=14) for 4 weeks (daily). […] (FIG. 4f). […] Thus chronic injection of SB led to the recovery of memories in CK-p25 Tg mice that had developed severe neuronal loss.

[3] = test system: C57BL/6J mice; assay: Contextual fear conditioning (associative learning) in wild type mice; conditions: for freezing behavior during the memory test: test 24 h later
Excerpt: (§1) Learning tests: All behavioral testing is described in Fischer et al. (3).
Mechanism underlying EE. Other than a few genes involved in synaptic function, relatively little is known about the mechanism underlying EE (12-14). Since histone acetylation, an epigenetic mechanism regulating gene expression via chromatin remodeling, has recently been implicated in synaptic plasticity and learning behavior (15-18), the induction of a transcriptional program by EE that leads to activation of plasticity genes was evaluated. Wild type mice were subjected to EE and hippocampal and cortical brain lysates were obtained 3, 24 h or 2 weeks later (n=3/group) by acid extraction and probed with antibodies detecting histone-tail modification that indicate active chromatin. Increases in hippocampal H3 (K-9, K14) and H4 (K-5) and in cortical H3 (K-9) and H4 (K-5) acetylation were observed. […] No changes in H4 acetylation were observed when the Ac-H4 (K,8,12,16) antibody was used, which is likely due to the fact that H4-K16 is a marker of condensed chromatin. EE induced hippocampal and cortical histone 3 (H3) and histone 4 (H4) acetylation and […] as soon as 3 hours after treatment (FIGS. 3a, b). […] To investigate whether inhibition of HDACs mimics the effects of EE, SB was administered daily [ip] into wild type mice for 4 weeks (FIG. 3c). […] Two days after the last injection mice were trained in the fear conditioning paradigm. […] Locomotor activity or basal anxiety was not altered in SB-injected mice (FIG. 8c).
The effect of sodiumbutyrate injection on learning, basal anxiety, explorative behavior and brain plasticity. C57BL/6J mice were subjected to fear conditioning and injected intraperitoneally [ip] with 1.2 g/kg sodiumbutyrate (SB, n=8) or saline (vehicle; n=8) immediately afterwards. […] C57BL/6J mice were implanted with microcannulae into the lateral brain ventricles (icv) and injected with either 100 ng SB, 50 ng TSA or vehicle immediately after fear conditioning (n=8/group). […] C57BL/6J were daily injected [ip] with SB or saline (n=8/group) for 4 weeks before all mice were subjected to the elevated plus maze and open field test. […] Immunoblots were quantified relative to the optical density of the vehicle-group (set to 1). […] The analysis was performed as described under FIG. 1g.
The effects of SAHA and MS-275, relative to sodium butyrate (SB), on the hippocampus dependent associative learning in wildtype mice.
Mice were injected 10 days with either 5 mg/kg of MS275 or 25 mg/kg of UW_WT-I—06 or UW_WT-I—05 before training and memory tests as described above. […] Andorfer, C. et al. Cell-cycle reentry and cell death in transgenic mice expressing nonmutant human tau isoforms. J neurosci 25, 5446-5454 (2005). • 2. Santacruz, K. et al. Tau suppression in a neurodegenerative mouse model improves memory function. Science 309, 476-481 (2005). • 3. Fischer, A., Sananbenesi, F., Pang, P. T., Lu, B. & Tsai, L. H. Opposing roles of transient and prolonged expression of p25 in synaptic plasticity and hippocampus-dependent memory. Neuron 48, 825-838 (2005). • 4. Cruz, J. C. & Tsai, L. H. Jekyll and Hyde kinase: roles for Cdk5 in brain development and disease. Curr Opin Neurobiol. 14, 390-394 (2004). • 5. Cruz, J. C., Tseng, H. C., Goldman, J. A., Shih, H. & Tsai, L. H. Aberrant Cdk5 activation by p25 triggers pathological events leading to neurodegeneration and neurofibrillary tangles. Neuron 40, 471-83 (2003). • 6. Nithianantharajah, J. & Hannan, A. J. Enriched environments, experience-dependent plasticity and disorders of the nervous system. Nat Rev Neurosci 7, 697-709 (2006). • 7. Kim, J. J. & Fanselow, M. S. Modality-specific retrograde amnesia of fear. Science 256, 675-7 (1992). • 8. Gilmore, E. C. & Herrup, K. Neocortical cell migration: GABAergic neurons and cells in layers I and VI move in a cyclin-dependent kinase 5-independent manner. J Neurosci 21, 9690-700 (2001). • 9. […]

[4] = test system: CK-p25 Tg mice; assay: Fear conditioning learning in CK-p25 Tg mice after neurodegeneration; conditions: 6 weeks p25 induction, then daily 1.2 g/kg for 4 weeks, vs saline, P=0.009
Excerpt: as §1
Reinstatement of learning behavior through inhibition of HDAC. Whether sustained inhibition of HDACs would reinstate learning behavior and recover access to long-term memories in CK-p25 Tg mice that had developed synaptic and neuronal loss was investigated. P25 was induced in 11 month old CK-p25 Tg mice for 6 weeks. Afterwards p25 expression was repressed and one group of CK-p25 Tg mice was subjected to daily sodiumbutyrate (SB) injection (1.2 g/kg) for 4 weeks (n=9), whereas the other group received saline injection (n=9). […] To this end p25 expression was induced in 11-month old CK-p25 mice for 6 weeks, before one group was injected daily for 4 weeks with SB whereas the control group received saline injection (FIG. 4a).

Compound: CCCC(=O)[O-].[Na+] [SB, sodiumbutyrate]
- H3- and H4 acetylation in the hippocampus [1]: robust increase
- freezing behavior in long-term memory test [2]: performed significantly better than vehicle injected CK-p25 Tg mice
- freezing during the memory test ([3]; daily ip 1.2 g/kg for 4 weeks, trained two days after last injection, tested 24 h later, P<0.0001): more freezing during the memory test
- freezing behavior during the memory test ([3]; icv 100 ng SB or 50 ng TSA immediately after fear conditioning, P<0.0001): more freezing behavior than vehicle injected mice
- freezing behavior during the memory test ([3]; single ip 1.2 g/kg immediately after fear conditioning, P<0.0001): significantly more freezing behavior
- associative learning ([3]; wild type mice, intraperitoneal [ip] and intracerebroventricular [icv] injections): significantly facilitated associative learning
- associative learning, contextual fear conditioning paradigm ([3]; wildtype mice, chronic treatment for 10-21 days): facilitates contextual fear conditioning learning
- associative learning (freezing behavior) [4]: significantly enhanced
